ChEMBL document CHEMBL1121457, “Long-acting opiate agonists and antagonists: 14-hydroxydihydromorphinone hydrazones” (1980)

Columns and labels:
Rattus norvegicus [1] = species on record: Rattus norvegicus; assay: Percent decrease in activity for the inhibition of [3H]naltrexone in rat brain homogenates in the presence of standard at dose of 4 nM compared with that of control (4930+/-143 cpm).; assay type: functional
Rattus norvegicus [2] = species on record: Rattus norvegicus; assay: The compound was tested in vitro for the inhibition of [3H]naltrexone in rat brain homogenates in the presence of standard at 4 nM dose.; assay type: functional
Rattus norvegicus [3] = species on record: Rattus norvegicus; assay: Percent decrease in activity for the inhibition of [3H]naltrexone in rat brain homogenates in the presence of NaCl and MnCl2 at dose of 10 nM compared with that of control (5840+/-72 cpm).; assay type: functional
Rattus norvegicus [4] = species on record: Rattus norvegicus; assay: The compound was tested in vitro for the inhibition of [3H]naltrexone in rat brain homogenates in the presence of standard at 10 nM dose.; assay type: functional
Rattus norvegicus [5] = species on record: Rattus norvegicus; assay: Percent decrease in activity for the inhibition of [3H]-Naltrexone in rat brain homogenates in the presence of standard at dose of 10 nM compared with that of control (4930+/-143 cpm).; assay type: functional
Rattus norvegicus [6] = species on record: Rattus norvegicus; assay: Percent decrease in activity for the inhibition of [3H]naltrexone in rat brain homogenates in the presence of NaCl at dose of 4 nM compared with that of control (6070+/-75 cpm).; assay type: functional
Rattus norvegicus [7] = species on record: Rattus norvegicus; assay: The compound was tested in vitro for the inhibition of [3H]-Naltrexone in rat brain homogenates in the presence of NaCl at 10 nM dose.; assay type: functional
Rattus norvegicus [8] = species on record: Rattus norvegicus; assay: The compound was tested in vitro for the inhibition of [3H]naltrexone in rat brain homogenates in the presence of NaCl and MnCl2 at 10 nM dose.; assay type: functional, organism-based
Mus musculus = species on record: Mus musculus; assay: Percent analgesia of compound was measured in mice by using tail-flick assay; assay type: functional
Rattus norvegicus [9] = species on record: Rattus norvegicus; assay: Percent decrease in activity for the inhibition of [3H]naltrexone in rat brain homogenates in the presence of NaCl at dose of 10 nM compared with that of control (6070+/-75 cpm).; assay type: functional
Rattus norvegicus [10] = species on record: Rattus norvegicus; assay: The compound was tested in vitro for the inhibition of [3H]-Naltrexone in rat brain homogenates in the presence of MnCl2 at 4 nM dose.; assay type: functional
Rattus norvegicus [11] = species on record: Rattus norvegicus; assay: The compound was tested in vitro for the inhibition of [3H]-Naltrexone in rat brain homogenates in the presence of MnCl2 at 10 nM dose.; assay type: functional
Rattus norvegicus [12] = species on record: Rattus norvegicus; assay: Percent decrease in activity for the inhibition of [3H]naltrexone in rat brain homogenates in the presence of MnCl2 at dose of 4 nM compared with that of control (4080+/-138 cpm).; assay type: functional
Rattus norvegicus [13] = species on record: Rattus norvegicus; assay: Percent decrease in activity for the inhibition of [3H]naltrexone in rat brain homogenates in the presence of NaCl and MnCl2 at dose of 4 nM compared with that of control (5840+/-72 cpm).; assay type: functional
Rattus norvegicus [14] = species on record: Rattus norvegicus; assay: Percent decrease in activity for the inhibition of [3H]naltrexone in rat brain homogenates in the presence of MnCl2 at dose of 10 nM compared with that of control (4080+/-138 cpm).; assay type: functional
Rattus norvegicus [15] = species on record: Rattus norvegicus; assay: The compound was tested in vitro for the inhibition of [3H]naltrexone in rat brain homogenates in the presence of NaCl and MnCl2 at 4 nM dose.; assay type: functional, organism-based
Rattus norvegicus [16] = species on record: Rattus norvegicus; assay: The compound was tested in vitro for the inhibition of [3H]naltrexone in rat brain homogenates in the presence of MnCl2 at 10 nM dose

Structure (SMILES) | Decrease (Rattus norvegicus [1]) | Binding activity (Rattus norvegicus [2]) | Decrease (Rattus norvegicus [3]) | Binding activity (Rattus norvegicus [4]) | Decrease (Rattus norvegicus [5]) | Decrease (Rattus norvegicus [6]) | Binding activity (Rattus norvegicus [7]) | Binding activity (Rattus norvegicus [8]) | Analgesia (Mus musculus) | Decrease (Rattus norvegicus [9]) | Decrease (Rattus norvegicus [14]) | also measured
CN1CC[C@]23c4c5ccc(O)c4O[C@H]2/C(=N\N)CC[C@@]3(O)[C@H]1C5 [OXYMORPHAZONE] | 2% | 4860 c.p.m. | 22% | 3750 c.p.m. | 24% | 5% | 5520 c.p.m. | 4560 c.p.m. | 82% |  |  | 
C=CCN1CC[C@]23c4c5ccc(O)c4O[C@H]2C(=O)CC[C@@]3(O)[C@H]1C5 [NALOXONE] |  |  |  |  |  |  |  |  | 54% |  |  | 
O=C1CC[C@@]2(O)[C@H]3Cc4ccc(O)c5c4[C@@]2(CCN3CC2CC2)[C@H]1O5 [NALTREXONE] |  |  |  |  |  |  |  |  | 67% |  |  | 
N/N=C1/CC[C@@]2(O)[C@H]3Cc4ccc(O)c5c4[C@@]2(CCN3CC2CC2)[C@H]1O5 [NALTREXAZONE] | 39% | 2980 c.p.m. | 62% | 1910 c.p.m. | 61% | 39% | 2200 c.p.m. | 2240 c.p.m. | 0% | 64% | 62% | Binding activity (Rattus norvegicus [10]): 2570 c.p.m.; Binding activity (Rattus norvegicus [11]): 1550 c.p.m.; Decrease (Rattus norvegicus [12]): 38%; Decrease (Rattus norvegicus [13]): 40%; Binding activity (Rattus norvegicus [15]): 3480 c.p.m.
C=CCN1CC[C@]23c4c5ccc(O)c4O[C@H]2/C(=N\N)CC[C@@]3(O)[C@H]1C5 [NALOXAZONE] |  |  |  | 4400 c.p.m. | 11% |  | 4640 c.p.m. |  | 0% | 24% | 23% | Binding activity (Rattus norvegicus [16]): 3140 c.p.m.
CN1CC[C@]23c4c5ccc(O)c4O[C@H]2C(=O)CC[C@@]3(O)[C@H]1C5 [OXYMORPHONE] |  |  |  |  |  |  |  |  | 17% |  |  | 
